From the supplement of paper PMC10307832

Columns and labels:
Test in all cases: relative viability (nuclei count vs DMSO), 5 days (fraction); higher = more cells survive
NCI-H1395 = system: NCI-H1395
How it was run: (§1)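 Medians of duplicate plates are given as relative viability. That measure is the nuclei count in treated wells divided by the count in vehicle wells. Counts were taken on 4× images of lung cancer cell lines in 1536-well plates, 5 days after pin-tool dosing the day after seeding with one drug alone or a fixed anchor-drug dose plus five library-drug doses (not always all listed) in √10 steps.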

NCI-H2347 = system: NCI-H2347
How it was run: as §1

NCI-H2087 = system: NCI-H2087
How it was run: as §1

NCI-H1666 = system: NCI-H1666
How it was run: as §1

NCI-H838 = system: NCI-H838
How it was run: as §1

EMC-BAC-2 = system: EMC-BAC-2
How it was run: as §1

NCI-H1993 = system: NCI-H1993
How it was run: as §1

HARA = system: HARA
How it was run: as §1

NCI-H647 = system: NCI-H647
How it was run: as §1

NCI-H3122 = system: NCI-H3122
How it was run: as §1

NCI-H2009 = system: NCI-H2009
How it was run: as §1

NCI-H727 = system: NCI-H727
How it was run: as §1

LCLC-103H = system: LCLC-103H
How it was run: as §1

HCC-44 = system: HCC-44
How it was run: as §1

LOU-NH91 = system: LOU-NH91
How it was run: as §1

NCI-H596 = system: NCI-H596
How it was run: as §1

NCI-H23 = system: NCI-H23
How it was run: as §1

NCI-H2023 = system: NCI-H2023
How it was run: as §1

BEN = system: BEN
How it was run: as §1

NCI-H2126 = system: NCI-H2126
How it was run: as §1

201T = system: 201T
How it was run: as §1

NCI-H650 = system: NCI-H650
How it was run: as §1

NCI-H441 = system: NCI-H441
How it was run: as §1

NCI-H522 = system: NCI-H522
How it was run: as §1

In the case of `Clc1ccc(Nc2nnc(Cc3ccncc3)c3ccccc23)cc1` [Vatalanib] + O=C(c1cc(Cc2n[nH]c(=O)c3ccccc23)ccc1F)N1CCN(C(=O)C2CC2)CC1 [Olaparib] (partner 8 µM), the relative viability (NCI-H1395; first compound 0.04 µM) is reported as 0.448, the relative viability (NCI-H1395; first compound 0.1265 µM) is reported as 0.456 and the relative viability (NCI-H1395; first compound 0.4 µM) is reported as 0.489. For the same molecule, the relative viability (NCI-H1395; first compound 4 µM) was 0.437, the relative viability (NCI-H2347; first compound 0.04 µM) was 0.647 and the relative viability (NCI-H2347; first compound 0.1265 µM) was 0.538. The relative viability (NCI-H2347; first compound 0.4 µM) was 0.643, the relative viability (NCI-H2347; first compound 1.265 µM) was 0.623 and the relative viability (NCI-H2347; first compound 4 µM) was 0.597. The relative viability (NCI-H2087; first compound 0.04 µM) was 0.461, the relative viability (NCI-H2087; first compound 0.1265 µM) was 0.542 and the relative viability (NCI-H2087; first compound 0.4 µM) was 0.682. For the same molecule, the relative viability (NCI-H2087; first compound 1.265 µM) was 0.519, the relative viability (NCI-H2087; first compound 4 µM) was 0.633 and the relative viability (NCI-H1666; first compound 0.04 µM) was 0.72. The relative viability (NCI-H1666; first compound 0.1265 µM) was 0.832, the relative viability (NCI-H1666; first compound 0.4 µM) was 0.804 and the relative viability (NCI-H1666; first compound 1.265 µM) was 0.798. For the same molecule, the relative viability (NCI-H1666; first compound 4 µM) was 0.752, the relative viability (NCI-H838; first compound 0.04 µM) was 0.774 and the relative viability (NCI-H838; first compound 0.1265 µM) was 0.741. It also gave a relative viability (NCI-H838; first compound 0.4 µM) of 0.824, a relative viability (NCI-H838; first compound 1.265 µM) of 0.722 and a relative viability (NCI-H838; first compound 4 µM) of 0.702. For the same molecule, the relative viability (EMC-BAC-2; first compound 0.04 µM) was 0.476, the relative viability (EMC-BAC-2; first compound 0.1265 µM) was 0.476 and the relative viability (EMC-BAC-2; first compound 0.4 µM) was 0.497. It also gave a relative viability (EMC-BAC-2; first compound 4 µM) of 0.492, a relative viability (NCI-H1993; first compound 0.04 µM) of 0.587 and a relative viability (NCI-H1993; first compound 0.1265 µM) of 1.08. It also gave a relative viability (NCI-H1993; first compound 0.4 µM) of 0.879, a relative viability (NCI-H1993; first compound 1.265 µM) of 1.11 and a relative viability (NCI-H1993; first compound 4 µM) of 1.01. The relative viability (HARA; first compound 0.04 µM) was 0.713, the relative viability (HARA; first compound 0.1265 µM) was 0.725 and the relative viability (HARA; first compound 0.4 µM) was 0.875. It also gave a relative viability (HARA; first compound 1.265 µM) of 0.97, a relative viability (HARA; first compound 4 µM) of 0.823 and a relative viability (NCI-H647; first compound 0.04 µM) of 0.612. The relative viability (NCI-H647; first compound 0.1265 µM) was 0.582, the relative viability (NCI-H647; first compound 0.4 µM) was 0.582 and the relative viability (NCI-H647; first compound 1.265 µM) was 0.584. For the same molecule, the relative viability (NCI-H647; first compound 4 µM) was 0.531, the relative viability (NCI-H3122; first compound 0.04 µM) was 0.593 and the relative viability (NCI-H3122; first compound 0.1265 µM) was 0.668. The relative viability (NCI-H3122; first compound 0.4 µM) was 0.689, the relative viability (NCI-H3122; first compound 1.265 µM) was 0.592 and the relative viability (NCI-H3122; first compound 4 µM) was 0.598. For the same molecule, the relative viability (NCI-H2009; first compound 0.04 µM) was 0.703, the relative viability (NCI-H2009; first compound 0.1265 µM) was 0.623 and the relative viability (NCI-H2009; first compound 0.4 µM) was 0.675. For the same molecule, the relative viability (NCI-H2009; first compound 1.265 µM) was 0.672, the relative viability (NCI-H2009; first compound 4 µM) was 0.594 and the relative viability (NCI-H727; first compound 0.1265 µM) was 0.772. The relative viability (NCI-H727; first compound 0.4 µM) was 0.761, the relative viability (NCI-H727; first compound 1.265 µM) was 0.818 and the relative viability (NCI-H727; first compound 4 µM) was 0.758. For the same molecule, the relative viability (LCLC-103H; first compound 0.04 µM) was 0.746, the relative viability (LCLC-103H; first compound 0.1265 µM) was 0.706 and the relative viability (LCLC-103H; first compound 0.4 µM) was 0.749. For the same molecule, the relative viability (LCLC-103H; first compound 1.265 µM) was 0.746, the relative viability (LCLC-103H; first compound 4 µM) was 0.764 and the relative viability (HCC-44; first compound 0.04 µM) was 1.05. The relative viability (HCC-44; first compound 0.1265 µM) was 0.971, the relative viability (HCC-44; first compound 0.4 µM) was 0.978 and the relative viability (HCC-44; first compound 1.265 µM) was 0.998. It also gave a relative viability (HCC-44; first compound 4 µM) of 0.996, a relative viability (LOU-NH91; first compound 0.04 µM) of 0.912 and a relative viability (LOU-NH91; first compound 0.1265 µM) of 0.886. It also gave a relative viability (LOU-NH91; first compound 0.4 µM) of 0.793, a relative viability (LOU-NH91; first compound 1.265 µM) of 0.881 and a relative viability (LOU-NH91; first compound 4 µM) of 0.875. The relative viability (NCI-H596; first compound 0.04 µM) was 0.751, the relative viability (NCI-H596; first compound 0.1265 µM) was 0.741 and the relative viability (NCI-H596; first compound 0.4 µM) was 0.63. It also gave a relative viability (NCI-H596; first compound 1.265 µM) of 0.652, a relative viability (NCI-H596; first compound 4 µM) of 0.765 and a relative viability (NCI-H23; first compound 0.04 µM) of 0.306. For the same molecule, the relative viability (NCI-H23; first compound 0.1265 µM) was 0.161, the relative viability (NCI-H23; first compound 0.4 µM) was 0.326 and the relative viability (NCI-H23; first compound 1.265 µM) was 0.305. For the same molecule, the relative viability (NCI-H23; first compound 4 µM) was 0.28, the relative viability (NCI-H2023; first compound 0.04 µM) was 0.403 and the relative viability (NCI-H2023; first compound 0.1265 µM) was 0.444. For the same molecule, the relative viability (NCI-H2023; first compound 0.4 µM) was 0.447, the relative viability (NCI-H2023; first compound 1.265 µM) was 0.48 and the relative viability (NCI-H2023; first compound 4 µM) was 0.422. For the same molecule, the relative viability (BEN; first compound 0.04 µM) was 1.03, the relative viability (BEN; first compound 0.1265 µM) was 1.01 and the relative viability (BEN; first compound 0.4 µM) was 1.31. For the same molecule, the relative viability (BEN; first compound 1.265 µM) was 1.04, the relative viability (BEN; first compound 4 µM) was 0.877 and the relative viability (NCI-H2126; first compound 0.04 µM) was 0.888. It also gave a relative viability (NCI-H2126; first compound 0.1265 µM) of 0.926, a relative viability (NCI-H2126; first compound 0.4 µM) of 0.938 and a relative viability (NCI-H2126; first compound 1.265 µM) of 0.85. It also gave a relative viability (NCI-H2126; first compound 4 µM) of 0.966, a relative viability (201T; first compound 0.04 µM) of 0.833 and a relative viability (201T; first compound 0.1265 µM) of 0.83. For the same molecule, the relative viability (201T; first compound 0.4 µM) was 0.904, the relative viability (201T; first compound 1.265 µM) was 0.842 and the relative viability (201T; first compound 4 µM) was 0.83. For the same molecule, the relative viability (NCI-H650; first compound 0.04 µM) was 0.377, the relative viability (NCI-H650; first compound 0.1265 µM) was 0.378 and the relative viability (NCI-H650; first compound 0.4 µM) was 0.414. The relative viability (NCI-H650; first compound 1.265 µM) was 0.394, the relative viability (NCI-H650; first compound 4 µM) was 0.361 and the relative viability (NCI-H441; first compound 0.04 µM) was 0.546. The relative viability (NCI-H441; first compound 0.1265 µM) was 0.62, the relative viability (NCI-H441; first compound 0.4 µM) was 0.51 and the relative viability (NCI-H441; first compound 1.265 µM) was 0.561. It also gave a relative viability (NCI-H441; first compound 4 µM) of 0.553, a relative viability (NCI-H522; first compound 0.04 µM) of 0.756 and a relative viability (NCI-H522; first compound 0.1265 µM) of 0.705. It also gave a relative viability (NCI-H522; first compound 0.4 µM) of 0.746, a relative viability (NCI-H522; first compound 1.265 µM) of 0.565 and a relative viability (NCI-H522; first compound 4 µM) of 0.774.
